Laboratory results from US20240060990A1, “SPATIAL SIGNALING NETWORKS FOR MULTIPLEXED DRUG RESPONSE MEASUREMENT AND MODELING” (Georgia Tech Research Corporation, priority 2022, published 2024).

Assays:
WNT1 = test: RapMIF multiplexed immunofluorescence in PC9 cells, WNT1; format: cell-based, human; settings: 40 nM, 48 hours vs control
Text: RapMIF: The RapMIF setup consisted of an autosampler that transferred antibodies and performed washes of the sample automatically and controlled by a custom-written python code (FIGS. 10A-10D). The buffers used during the procedure are 1×PBS (D8537, Sigma), CSM, and Fluorophore bleaching solution. PBS 1× was the wash buffer for the stabilization of the cells and the tubes. CSM was the imaging buffer that helped in the annealing of antibodies with the cells. Fluorophore bleaching solution was the strip buffer used to remove staining after each cycle. The walls on the 96-well plate for the antibodies were pre-washed with 1×PBS. The well plate was covered with foil stickers to ensure a dark condition. […] Once the cells were mounted and the antibodies and buffers were ready for transfer, automatic staining was done by running Python code. […]
Cell multiplexing: Each coverslip prepared with cells was stained with 25 markers using a total of 11-12 cycles (FIG. 10C). […] To quantify the frequencies belonging to the signal that disappears after bleaching, a Fourier analysis of before and after bleaching was performed to indicate the difference in frequencies belonging to the signal.
Image intensity: From nuclei and cytosol cell masks, the mean intensity of markers in each cell area was calculated. […]

PC9 cells = test: Pearson correlation of single-cell mean marker intensity (RapMIF); format: cell-based, human
Method: Correlation analysis: Correlation between pairs of cells was performed based on the mean intensity level for a pair of markers across all the cells (FIGS. 5A-5F). The correlation between pairwise markers at the cell level was investigated to identify co-expression patterns. For the correlation analysis, the Pearson correlation of pairwise markers at the single-cell level was quantified by using the mean intensity distribution for pairs of markers across the cells (FIGS. 5E-5F, FIGS. 7C-7D). The per cell mean intensity was first extracted for all markers to obtain a vector of mean intensities per cell. The nuclei and cytosol region were then separated for each cell and extracted one vector of mean intensities in the cytosol and another vector of mean intensities in the nuclei per cell. To confirm the bleaching efficiency, the mean intensity correlations of the before and after bleach images was compared. The 3-way correlation was calculated with the adjusted-R^2 value of the linear regression model of one marker predicted by the two others. Specifically, the expression of the maker on the z-axis was predicted by the two markers on the x and y-axis using a 3D scatter plot.

p-ERK(T202/Y204) = test: p-ERK immunofluorescence in HCC827 cells; format: cell-based, human; settings: 100 nM
Method: Following that, the cells were then fixed and permeabilized with 1.6% formaldehyde in 1×PBS for 10 minutes at RT and 0.5% Triton X-100 for 10 minutes at RT, respectively. The cells were then blocked using a cell staining medium (CSM) containing 0.5% BSA, and 0.02% Sodium Azide in PBS. […] HCC827 cells were stained with p-ERK overnight followed by 1-hour incubation of secondary antibodies at RT, and 10 mins DAPI staining. The cells were then imaged at 40× magnification, and the intensity levels were analyzed. […] The coverslip was mounted to an acrylic holder for multiple cycles of staining.

AKT/mTOR pathways = test: RapMPI on HCC827 xenograft tissue; format: in vivo, mouse; settings: 2-month vs 1-week treatment
Text: (§1) Tissues: HCC827-derived mouse xenografts were provided by Dr. Sun Shi-yong (Emory University). […] Mice were then euthanized, and the tumor was embedded in OCT for sectioning. The OCT tissues were fixed in acetone, rehydrated, permeabilized in 0.4% Triton X-100, blocked, and ready for multiplexed experiments.
(§2) The staining settings were the same as the RapMPI in cell cultures. The blocking step between cycles for tissue multiplexing was skipped to avoid hiding the signals. The tissue samples were mounted with 10% glycerol made in 1×PBS and covered the slide using a 24×50 mm No. 1 coverslip (3322, Thermo Scientific) to prevent evaporation during imaging. To de-coverslip the sample after imaging, the slide was placed in a vertical jar containing 1×PBS for around 10 minutes, and the coverslip was released due to gravity.
(§3) To avoid loss of PPI information due to cell segmentation error, a nearest-distance-based assignment method was used to assign the PPI signal detected and not in any cell segmentation mask. For each PPI signal not in any segmented cell regions, the nearest cell mask pixel was observed and if the distance was lower than a user-defined value, it was assigned to the cell to which the nearest cell mask pixel belonged.

MEK/ERK signaling = test: RapMPI on HCC827 xenograft tissue; format: in vivo, mouse; settings: 2-month vs 1-week treatment
Text: as §1, §2, §3

cyclin E/CDK2 = test: RapMPI on HCC827 xenograft tissue; format: in vivo, mouse; settings: 1-week treatment (responders)
Text: as §1, §2, §3

Compound: C=CC(=O)Nc1cc(Nc2nccc(-c3cn(C)c4ccccc34)n2)c(OC)cc1N(C)CCN(C)C [Osimertinib]
- WNT1 signaling (WNT1): increased the WNT1 signaling
- correlation of WNT1 with p-AKT (PC9 cells; 40 nM): high correlation with p-AKT in the presence of the drug
- correlation between p-EGFR and non-p-β-catenin (PC9 cells; 40 nM vs control): higher positive correlation between p-EGFR and non-p-β-catenin compared to the control
- correlation of p-EGFR with p-AKT (single-cell mean intensity) (PC9 cells; 40 nM, 48 hours): high correlation to p-AKT after drug treatment
- correlation of WNT1 with p-EGFR (PC9 cells; control and 40 nM): low correlation with p-EGFR in both conditions
- p-ERK level (p-ERK(T202/Y204); 6-hour treatment): suppressed initially
- p-ERK level (p-ERK(T202/Y204); 12-hour treatment): increased
- AKT/mTOR pathways in pan-cytokeratin positive regions (AKT/mTOR pathways): downregulating
- MEK/ERK signaling in pan-cytokeratin positive regions (MEK/ERK signaling): enhanced
- cyclin E/CDK2 PPI in responders (cyclin E/CDK2): downregulation
